Laboratory results reported in ChEMBL document CHEMBL3272053, “(exo, exo)-2-Aryltropane-3-carboxylic esters, hypoglycemic agents with accompanying analgesic activity” (J Med Chem, 1978).

Key:
Rattus norvegicus [1] = test: Hypoglycemic activity in glucose loaded Sprague-Dawley rat assessed as reduction of blood glucose level at 88 mg/kg, po measured at 1.5 hrs relative to control; format: functional; design: scale not given: the % may be the effect or the level left
Rattus norvegicus [2] = test: Hypoglycemic activity in fasted Sprague-Dawley rat assessed as reduction of blood glucose level at 88 mg/kg, po measured at 1 hr relative to control; format: functional; design: scale not given: the % may be the effect or the level left
Mus musculus [3] = test: Analgesic activity in po dosed Swiss-Webster mouse assessed as reduction of acetylcholine-induced writhing; format: functional
Rattus norvegicus [4] = test: Hypoglycemic activity in glucose loaded Sprague-Dawley rat assessed as reduction of blood glucose level at 50 mg/kg, po measured at 1.5 hrs relative to control; format: functional; design: scale not given: the % may be the effect or the level left
Rattus norvegicus [5] = test: Narcotic analgesic activity in sc dosed fed Sprague-Dawley rat measured at 30 mins by D'Amour-Smith tail-flick test; format: functional
Rattus norvegicus [6] = test: Narcotic analgesic activity in po dosed fasted Sprague-Dawley rat measured at 60 mins by D'Amour-Smith tail-flick test; format: functional; conditions: Rattus norvegicus, Sprague-Dawley, Tail, po, 1 h; read-out: ED50
Rattus norvegicus [7] = test: Narcotic analgesic activity in po dosed fasted Sprague-Dawley rat measured at 15 mins by D'Amour-Smith tail-flick test; format: functional; conditions: 0.25 h
Mus musculus [8] = test: Toxicity in naloxone hydrochloride-treated Swiss-Webster mouse assessed as stimulation of straub tail at 300 mg/kg, po after 15 to 25 mins; format: organism-based; design: dose 300 mg/kg, route oral; conditions: in vivo
Rattus norvegicus [9] = test: Hypoglycemic activity in glucose loaded Sprague-Dawley rat assessed as reduction of blood glucose level at 88 mg/kg, po measured at 1 hr relative to control; format: functional; design: scale not given: the % may be the effect or the level left
Rattus norvegicus [10] = test: Hypoglycemic activity in fasted Sprague-Dawley rat assessed as reduction of blood glucose level at 50 mg/kg, po measured at 1 hr relative to control; format: functional; design: scale not given: the % may be the effect or the level left
Rattus norvegicus [11] = test: Toxicity in morphine-treated Sprague-Dawley rat assessed as catalepsy at 32 mg/kg, po administered 15 mins prior to testing; format: organism-based; design: dose 32 mg/kg, route oral; conditions: in vivo, 0.25 h
Rattus norvegicus [12] = test: Hypoglycemic activity in glucose/glycogen loaded Sprague-Dawley rat assessed as reduction of glucose level per 100 mL of blood at 88 mg/kg, po measured at 2 hrs (reference value: 102 +/- 7 mg/100 mL); format: functional
Rattus norvegicus [13] = test: Hypoglycemic activity in fasted Sprague-Dawley rat assessed as reduction of blood glucose level at 88 mg/kg, po measured at 2 hrs relative to control; format: functional; design: scale not given: the % may be the effect or the level left
Canis familiaris [14] = test: Toxicity in dog assessed as respiratory depression at 150 mg/kg, im; format: organism-based, Canis lupus familiaris; design: dose 150 mg/kg, route intramuscular; conditions: in vivo
Rattus norvegicus [15] = test: Hypoglycemic activity in glucose/glycogen loaded Sprague-Dawley rat assessed as reduction of blood glucose level at 88 mg/kg, po measured at 0.5 hrs relative to control; format: functional; design: scale not given: the % may be the effect or the level left
Mus musculus [16] = test: Analgesic activity in sc dosed Swiss-Webster mouse assessed as reduction of acetylcholine-induced writhing; format: functional; conditions: Mus musculus, Swiss-Webster, sc; read-out: ED50
Rattus norvegicus [17] = test: Hypoglycemic activity in glucose/glycogen loaded Sprague-Dawley rat assessed as reduction of blood glucose level at 88 mg/kg, po measured at 1 hr relative to control; format: functional; design: scale not given: the % may be the effect or the level left
Rattus norvegicus [18] = test: Toxicity in Sprague-Dawley rat assessed as induction of physical dependence by measuring occurrence of abstinence signs at 100 mg/kg/24 hrs, ip administered as 2 days of infusion prior to naloxone-precipitated withdrawal; format: organism-based; design: route intraperitoneal; conditions: in vivo
Canis familiaris [19] = test: Toxicity in nalorphine-treated dog assessed as stopped breathing at 100 mg/kg, im measured after 3 mins; format: organism-based, Canis lupus familiaris; design: dose 100 mg/kg, route intramuscular; conditions: in vivo, 0.05 h
Rattus norvegicus [20] = test: Hypoglycemic activity in fasted Sprague-Dawley rat assessed as reduction of blood glucose level at 88 mg/kg, po measured at 0.5 hrs relative to control; format: functional; design: scale not given: the % may be the effect or the level left
Canis familiaris [21] = test: Toxicity in nalorphine-treated dog assessed as reduction of pulmonary ventilation rate at 100 mg/kg, im measured within 5 mins; format: organism-based, Canis lupus familiaris; design: dose 100 mg/kg, route intramuscular; conditions: in vivo
Mus musculus [22] = test: Toxicity in po dosed Swiss-Webster mouse assessed as stimulation of straub tail after 15 to 25 mins; format: organism-based; conditions: in vivo
Rattus norvegicus [23] = test: Hypoglycemic activity in fasted Sprague-Dawley rat assessed as reduction of blood glucose level at 50 mg/kg, po measured at 2 hrs relative to control; format: functional; design: scale not given: the % may be the effect or the level left
Canis familiaris [24] = test: Toxicity in dog assessed as stopped breathing at 100 mg/kg, im measured after 3 mins; format: organism-based, Canis lupus familiaris; design: dose 100 mg/kg, route intramuscular; conditions: in vivo, 0.05 h
Rattus norvegicus [25] = test: Hypoglycemic activity in glucose loaded Sprague-Dawley rat assessed as reduction of blood glucose level at 50 mg/kg, po measured at 1 hr relative to control; format: functional; design: scale not given: the % may be the effect or the level left
Rattus norvegicus [26] = test: Toxicity in po dosed Sprague-Dawley rat assessed as catalepsy administered 15 mins prior to testing; format: organism-based; conditions: in vivo, 0.25 h
Rattus norvegicus [27] = test: Toxicity in Sprague-Dawley rat assessed as catalepsy at 32 mg/kg, po administered 15 mins prior to testing; format: organism-based; design: dose 32 mg/kg, route oral; conditions: in vivo, 0.25 h
Rattus norvegicus [28] = test: Hypoglycemic activity in glucose loaded Sprague-Dawley rat assessed as reduction of glucose level per 100 mL of blood at 50 mg/kg, po measured at 0.5 hrs (reference value: 176 +/- 8 mg/100 mL); format: functional
Rattus norvegicus [29] = test: Toxicity in Sprague-Dawley rat assessed as catalepsy at 32 mg/kg, po administered 15 mins prior to testing in presence of naloxone hydrochloride; format: organism-based; design: dose 32 mg/kg, route oral; conditions: in vivo, 0.25 h
Rattus norvegicus [30] = test: Hypoglycemic activity in fasted Sprague-Dawley rat assessed as reduction of blood glucose level at 50 mg/kg, po measured at 0.5 hrs relative to control; format: functional; design: scale not given: the % may be the effect or the level left
Rattus norvegicus [31] = test: Toxicity in Sprague-Dawley rat assessed as induction of physical dependence by measuring occurrence of abstinence signs administered as infusion at 0.3 log interval doses up to maximum tolerated dose 800 mg/kg/24 hrs, ip for 6 days prior to abrupt withdrawal; format: organism-based; design: route intraperitoneal; conditions: in vivo
[32] = Drug metabolism in glucose loaded Sprague-Dawley rat urine assessed as formation of (7)- (exo,exo)-methyl 2-(thiophen-2-yl)-8-azabicyclo[3.2.1]octane-3-carboxylate hydrochloride at 20 mg, po administered 3 to 6 hrs measured for 24 hrs by TLC/mass spectrographic analysis; format: ADME, organism-based; conditions: in vivo
Rattus norvegicus [33] = test: Hypoglycemic activity in glucose loaded Sprague-Dawley rat assessed as reduction of blood glucose level at 88 mg/kg, po measured at 0.5 hrs relative to control; format: functional; design: scale not given: the % may be the effect or the level left
Canis familiaris [34] = test: Toxicity in nalorphine-treated dog assessed as reduction of pulmonary ventilation rate at 100 mg/kg, im measured within 1 min; format: organism-based, Canis lupus familiaris; design: dose 100 mg/kg, route intramuscular; conditions: in vivo
Rattus norvegicus [35] = test: Toxicity in Sprague-Dawley rat assessed as induction of morphine physical dependence by measuring occurrence of abstinence signs at 32 times of morphine dose 12.5 mg/kg/24 hrs administered on day 6 post morphine withdrawal; format: organism-based; conditions: in vivo
Rattus norvegicus [36] = test: Hypoglycemic activity in glucose/glycogen loaded Sprague-Dawley rat assessed as reduction of blood glucose level at 88 mg/kg, po measured at 1.5 hrs relative to control; format: functional; design: scale not given: the % may be the effect or the level left
Rattus norvegicus [37] = test: Hypoglycemic activity in fasted Sprague-Dawley rat assessed as reduction of blood glucose level at 88 mg/kg, po measured at 1.5 hrs relative to control; format: functional; design: scale not given: the % may be the effect or the level left
Rattus norvegicus [38] = test: Hypoglycemic activity in fasted Sprague-Dawley rat assessed as reduction of blood glucose level at 50 mg/kg, po measured at 1.5 hrs relative to control; format: functional; design: scale not given: the % may be the effect or the level left
Mus musculus [39] = test: Toxicity in Swiss-Webster mouse assessed as mortality at 75 mg/kg, sc; format: organism-based; design: dose 75 mg/kg, route subcutaneous; conditions: in vivo
Rattus norvegicus [40] = test: Toxicity in Sprague-Dawley rat assessed as severe convulsion at 240 mg/kg, sc; format: organism-based; design: dose 240 mg/kg, route subcutaneous; conditions: in vivo
Canis familiaris [41] = test: Toxicity in dog assessed as reduction of pulmonary ventilation rate at 100 mg/kg, im measured within 20 mins relative to control; format: organism-based, Canis lupus familiaris; design: dose 100 mg/kg, route intramuscular; scale not given: the % may be the effect or the level left; conditions: in vivo
Rattus norvegicus [42] = test: Hypoglycemic activity in glucose loaded Sprague-Dawley rat assessed as reduction of glucose level per 100 mL of blood at 88 mg/kg, po measured at 2 hrs (reference value: 99 +/- 2 mg/100 mL); format: functional
Rattus norvegicus [43] = test: Hypoglycemic activity in glucose loaded Sprague-Dawley rat assessed as reduction of blood glucose level at 50 mg/kg, po measured at 2 hrs relative to control; format: functional; design: scale not given: the % may be the effect or the level left
Rattus norvegicus [44] = test: Hypoglycemic activity in Sprague-Dawley rat assessed as reduction of blood glucose level at 88 mg/kg, po by glucagon-impaired glucose disposal test relative to control; format: functional; design: scale not given: the % may be the effect or the level left; conditions: 88 mg/kg
Canis familiaris [45] = test: Toxicity in dog assessed as reduction of pulmonary ventilation rate at 100 mg/kg, im measured within 5 mins; format: organism-based, Canis lupus familiaris; design: dose 100 mg/kg, route intramuscular; scale not given: the % may be the effect or the level left; conditions: in vivo
Canis familiaris [46] = test: Toxicity in dog assessed as effect on pulmonary ventilation rate at 150 mg/kg, im measured after 4 hrs; format: organism-based, Canis lupus familiaris; design: dose 150 mg/kg, route intramuscular; conditions: in vivo

COC(=O)[C@H]1C[C@H]2CC[C@H]([C@H]1c1cccs1)N2C.Cl (racemic)
Activity (Rattus norvegicus [1]): 32%
Activity (Rattus norvegicus [2]): 38%
ED50 (Mus musculus [3]): 35 mg/kg
Activity (Rattus norvegicus [4]): 53%
ED50 (Rattus norvegicus [5]): 100 mg/kg
ED50 (Rattus norvegicus [6]): 83 mg/kg
ED50 (Rattus norvegicus [7]): 29 mg/kg
Activity (Mus musculus [8]): Non-toxic
Activity (Rattus norvegicus [9]): 55%
Activity (Rattus norvegicus [10]): 40%
Activity (Rattus norvegicus [11]): 20%
Activity (Rattus norvegicus [12]): 104 mg
Activity (Rattus norvegicus [13]): 24%
Activity (Canis familiaris [14]): Non-toxic
Activity (Rattus norvegicus [15]): 62%
ED50 (Mus musculus [16]): 12 mg/kg
Activity (Rattus norvegicus [17]): 38%
Activity (Rattus norvegicus [18]): Non-toxic
Activity (Canis familiaris [19]): Non-toxic
Activity (Rattus norvegicus [20]): 45%
Activity (Canis familiaris [21]): Non-toxic
ED50 (Mus musculus [22]): 138 mg/kg
Activity (Rattus norvegicus [23]): 37%
Activity (Canis familiaris [24]): Non-toxic
Activity (Rattus norvegicus [25]): 40%
ED50 (Rattus norvegicus [26]): 18.6 mg/kg
Activity (Rattus norvegicus [27]): 65%
Activity (Rattus norvegicus [28]): 172 mg
Activity (Rattus norvegicus [29]): Non-toxic
Activity (Rattus norvegicus [30]): 34%
Activity (Rattus norvegicus [31]): Non-toxic
Drug metabolism [32]: metabolite_detected
Activity (Rattus norvegicus [33]): 55%
Activity (Canis familiaris [34]): Non-toxic
Activity (Rattus norvegicus [35]): Non-toxic
Activity (Rattus norvegicus [36]): 22%
Activity (Rattus norvegicus [37]): 27%
Activity (Rattus norvegicus [38]): 43%
Activity (Mus musculus [39]): Non-toxic
Activity (Rattus norvegicus [40]): Toxic
Activity (Canis familiaris [41]): 40%
Activity (Rattus norvegicus [42]): 100 mg
Activity (Rattus norvegicus [43]): 50%
Activity (Rattus norvegicus [44]): 63%
Activity (Canis familiaris [45]): 65%
Activity (Canis familiaris [46]): Non-toxic
